Test results taken from patent publication US5405857A, “3-substituted 1,2,3,4,-oxatriazole-5-imine compounds, a process for the preparation thereof and a pharmaceutical preparation containing said compounds” (A/S GEA Farmaceutisk Fabrik, priority 1991, dated 1995).
Structures can show the parent of a compound that is named as a salt. Where two headings read alike, the source gives them in different places.

How the values were obtained:
blood platelets = experiment: Inhibition of blood platelet aggregation (aggregometer, ADP); type: cell-based, human (healthy testees); conditions: Platelet, 0.05 h; human PRP, ADP 2 to 4 μM, 3 min incubation, 37° C.; read-out: IC50 (Inhibition of blood platelet aggregation)
Procedure: Compounds according to the invention were tested for their inhibition of clumping together (aggregation) of blood platelets (thrombocytes), which is the first phase of the formation of blood clots (thrombi). Such an inhibition may prevent the formation of blood clots and inhibit the development of new thrombi after a diagnosed thrombus.
Citrate stabilized ( 0.38% of sodium citrate, final concentration) venous blood from healthy testees is used, who have not used medicine for at least 8 days. Slight centrifugation (160×g for 10 minutes) results in PRP (blood plasma rich in platelets) which is pipetted. PPP (blood plasma poor in platelets) is obtained by an intense centrifugation (3000×g for 10 minutes) of the remaining blood. The light transmission is measured by the aggregometer (CHRONOLOG). PRP allows nearly no light transmitaaion, while PPP allows complete transmission of light. The PRP is placed in the aggregometer at 37° C. while being stirred by a magnet. Addition of a pro-aggregating substance causes the PRP to aggregate gradually and an increasing light transmission takes place at the same time. At complete aggregation a light transmission corresponding to PPP is obtained. Adnosine diphosphate (ADP) is used as pro-aggregating substance, said substance representing a basic biochemical mechanism for aggregation of blood platelets. The test substances are incubated for 3 minutes in PRP placed in the aggregometer at 37° C. during magnetic stirring. A predetermined positively aggregating dosage of adenosine diphosphate (ADP) (2 to 4 μM) is then added. […] A so-called IC50 -value (that is the concentration inhibiting the aggregation by 50% relative to the control aggregation) is calculated for each test substance by linear regression analysis (log concentration μM as constant ad abscissa and % inhibition as variable ad ordinate). The following known reference substances have been used: nitroglycerine (GTN), sodium nitroprusside (NNP) and SIN-1 (the active metabolite of molsidomine).

[1] = molecular target: T1, soluble guanylate cyclase (Homo sapiens, UniProt Q02153); experiment: Stimulation of guanylate cyclase from blood platelets (RIA); type: biochemical; conditions: 37° C.
T1 construct: The guanylate cyclase activity in the supernatant after incubation with and without the test substance; endogenous in cells; host or cells: human blood platelets, supernatant of homogenate
T1 sequence (Q02153 1-619): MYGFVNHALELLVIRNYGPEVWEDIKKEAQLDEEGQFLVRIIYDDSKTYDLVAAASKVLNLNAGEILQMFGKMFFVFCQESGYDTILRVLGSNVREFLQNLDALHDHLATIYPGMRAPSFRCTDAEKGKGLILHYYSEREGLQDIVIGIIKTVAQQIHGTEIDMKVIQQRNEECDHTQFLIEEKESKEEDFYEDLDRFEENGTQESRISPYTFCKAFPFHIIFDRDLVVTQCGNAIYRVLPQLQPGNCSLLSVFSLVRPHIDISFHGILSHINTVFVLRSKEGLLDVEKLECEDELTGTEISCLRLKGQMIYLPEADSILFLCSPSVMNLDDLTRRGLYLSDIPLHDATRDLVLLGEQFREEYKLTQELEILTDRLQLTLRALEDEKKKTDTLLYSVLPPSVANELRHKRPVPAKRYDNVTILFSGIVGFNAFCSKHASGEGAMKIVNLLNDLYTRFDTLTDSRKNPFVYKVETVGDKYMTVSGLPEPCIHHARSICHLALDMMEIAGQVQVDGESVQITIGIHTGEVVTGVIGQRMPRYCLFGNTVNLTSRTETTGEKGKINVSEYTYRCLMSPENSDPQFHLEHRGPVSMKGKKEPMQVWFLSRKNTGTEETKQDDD
T1 sequence (Q02108 1-690 partner): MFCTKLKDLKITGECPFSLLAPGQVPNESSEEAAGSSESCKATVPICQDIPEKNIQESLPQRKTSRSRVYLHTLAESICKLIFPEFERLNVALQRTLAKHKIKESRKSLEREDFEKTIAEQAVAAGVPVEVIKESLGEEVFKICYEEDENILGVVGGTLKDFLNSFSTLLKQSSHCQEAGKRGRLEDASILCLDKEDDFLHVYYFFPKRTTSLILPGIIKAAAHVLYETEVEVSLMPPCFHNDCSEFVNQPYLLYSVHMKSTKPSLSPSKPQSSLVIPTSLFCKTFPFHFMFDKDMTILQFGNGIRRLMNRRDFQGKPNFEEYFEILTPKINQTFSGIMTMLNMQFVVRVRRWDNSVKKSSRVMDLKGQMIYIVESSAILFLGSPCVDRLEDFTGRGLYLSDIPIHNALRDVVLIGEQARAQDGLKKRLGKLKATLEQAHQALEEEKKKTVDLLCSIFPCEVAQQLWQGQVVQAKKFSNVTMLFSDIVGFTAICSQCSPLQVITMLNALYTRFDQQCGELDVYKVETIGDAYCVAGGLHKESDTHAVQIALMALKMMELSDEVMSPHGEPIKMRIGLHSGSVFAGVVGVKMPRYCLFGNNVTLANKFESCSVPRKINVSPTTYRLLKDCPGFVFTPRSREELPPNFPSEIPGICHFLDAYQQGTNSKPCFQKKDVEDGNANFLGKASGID

pre-contracted trachea = experiment: Relaxation of pre-contracted isolated trachea; design: species or system guinea pig; conditions: Cavia porcellus; carbamylcholine 0.3 μM, Krebs buffer, 37° C.
Procedure: Compounds according to the invention were tested for their ability to relax a pre-contracted trachea. A contraction of the respiratory passages in combination with a swelling of the mucuos membrane therein presents a vital factor at asthmatic conditions. Relaxation or dilation of the contracted respiratory passages will improve the asthmatic condition.
An isolated trachea from a guinea pig is used. After preparation of a strip which has maintained the circular musculature, the organ is divided into two parts of equal size. The two tracheal strips are suspended in their respective organ bath and connected to a transducer recording the contraction and relaxation of the organ by means of a recorder. The two tracheal strips are continuously bathed in a Krebs buffer at 37° C., constantly bubbled with carbogen (95% O2 and 5% CO2). After an equilibration time of about 3 hours the organs are tested for their sensitivity (contractility) to carbamylcholin a bolus being added directly to the bath (0.3 μM). If the contraction is satisfactory, the organs are transferred to the Krebs buffer containing the same concentration of carbamylcholine. The organs are now constantly exposed to the carbamylcholine and slowly develop a permanent contraction ("asthma"). The test substances are in bolus form added directly to the organ bath. After maximum effect (relaxation) the substances are removed by washing out and the tracheal strip reverts to its permanent contraction state. […] An EC50 -value (that is the concentration relaxing the organ by 50% relative to the maximum relaxation) is calculated for each test substance by means of a linear regression analysis (log concentration (μM) as a constant ad abscissa and % relaxation as variable ad ordinate). Sodium nitroprusside (NNP) and SIN-1 are used as reference substances.

[2] = system: polymorph nuclear leukocytes (PMNs), c-GMP; experiment: Stimulation of c-GMP content in PMNs; type: cell-based, human; conditions: 37° C., 10 minutes
Procedure: (§1) Compounds according to the invention were tested for their ability to increase the content of cyclic guanosine monophosphate (c-GMP), to inhibit the synthesis of the leukotriene B4 (LTB4), and to inhibit the chemotactical movement of polymorph nuclear leukocytes (PMN). The polymorph nuclear leukocytes play a vital part in the cellular part of the inflammation process. At diseases, such as asthma, the mucuos membrane of the respiratory passages is swollen as a result of an inflammation with a significant infiltration of polymorph nuclear leukocytes (PMN's) in particular. Particularly effective substances for the treatment of asthma are such which in addition to relaxing the musculature in the respiratory passages also have an anti-inflammatory effect on the cellular phase of the inflammatory process, that is inhibiting the leukocyte function.
(§2) Isolated human PMNs are incubated at 37° C. for 10 minutes, whereafter the content of cyclic guanosine monophosphate (c-GMP) is measured. Further, the synthesis of the LTB4 is determined after stimulation with Ca-ionophore (A23187) and the chemotaxis (controlled movement) towards FMLP (a substance attracting the polymorph nuclear leukocytes, PMNs) is determined.
Three compounds according to the invention and the reference substance SIN-1 were tested for their ability to stimulate the content of cyclic guanosine monophosphate (c-GMP).

[3] = system: polymorph nuclear leukocytes (PMNs), LTB4 synthesis; experiment: Inhibition of leukotriene B4 synthesis in PMNs after Ca-ionophore (A23187); type: cell-based, human
Procedure: as §1, §2

[4] = system: polymorph nuclear leukocytes (PMNs); experiment: Inhibition of PMN chemotaxis towards FMLP; type: cell-based, human
Procedure: as §1, §2

LD50 test, intravenous = experiment: LD50 test, intravenous; design: species or system mice; conditions: mouse, in vivo, single injection, read-out: LD50 with 95% confidence limits
Procedure: (§3) Two tests were carried out on male rats, namely a determination of the "maximum tolerable dose" (MTD) and a test using multiple peroral doses. In addition, a LD50 test was carried out intravenously on mice.
(According to Litchfield and Wileoxon, J. Pharmacol. Exp. Therap. 96, 99-113, 1949).
The intravenous LD50 -value was determined after one single injection of different doses of the compound prepared in Example 4.

PAI-1 = experiment: Inhibition of plasminogen activator inhibitor (PAI-1) from blood platelets (fibrinolytic activity); type: cell-based, human; conditions: 50 μM, 60 minutes; for % Inhibition of PAI-1 activity: compared to control; for PAI-1 activity: human PRP, control 3.24
Procedure: Compounds according to the invention were tested for their inhibition of plasminogen activator inhibitor (PAI). An established thrombus comprises aggregated platelets cohered by fibrin. The organism has a fibrinolyric system for maintaining normal physiological conditions. Endogenous plasminogen is activated to plasmin (fibrinolysin, that is a proteolytic enzyme decomposing fibrin) by means of a tissue plasminogen activator (t-PA). The platelets include the enzyme PAI-1 inhibiting the activation of plasminogen to plasmin, and thus also the decomposition of fibrin.
A general stimulation of the fibrinolytic system can cause serious hemostatic side effects (haemorrhages). A specific inhibition of PAI-1 induces an increased fibrinolysis in areas with many platelets, which is exactly the case in thrombi. As a result a thrombolytic effect is obtained.
Human PRP prepared by slight centrifugation as previously mentioned is used, but at a low temperature (4° C.). By incubation of PRP (1 ml in a plastic tube) during a slight shaking at 37° C. the PAI-1 activity is liberated, said PAI-1 activity being measured spectrophotometrically by means of a two-step procedure using commercial kits (Spectrolyse™/fibrin kit from BIOPOOL, Sweden).
The PAI-1 activity of the control PRP and PRP incubated with each of 6 compounds according to the invention and the reference substance sodium niroprusside (NNP) (50 μM of each for 60 minutes) appear from Table 6.

male rats = conditions: rat, in vivo, po, 20 mg/kg
Procedure: as §3
At this test the substances were administered perorally in a dose of 20 mg per kg. as solutions or suspensions once a day for 5 days to groups of 5 animals. Clinical observations were made every day and the above hematological parameters were measured on the third day of the test.

[NH-]c1c[n+](N2CCOCC2)no1 [SIN-1, reference compound]
IC50 (blood platelets): 3900 nM | Guanylate cyclase activity ([1]; 0.01 μM): 0 pmole c-GMP/mg prot. × 15 minutes | Guanylate cyclase activity ([1]; 10 μm (so in the source)): 59733 pmole c-GMP/mg prot. × 15 minutes | EC50 (pre-contracted trachea): 18300 nM | c-GMP in PMNs ([2]; 1 μM): 32 fmole/10^6 cells | c-GMP in PMNs ([2]; 10 μM): 220 fmole/10^6 cells | c-GMP in PMNs ([2]; 100 μM): 473 fmole/10^6 cells | Inhibition of leukotriene B4 synthesis (in words) [3]: also able to inhibit these leukocyte functions, but only when used in higher concentrations | Inhibition of PMN chemotaxis (in words) [4]: also able to inhibit these leukocyte functions, but only when used in higher concentrations

COc1ccc(CCNC(=O)[N-]c2n[n+](-c3cccc(Cl)c3C)no2)cc1OC [Example 47a, 3-(3-chloro-2-methylphenyl)-1,2,3,4-oxatriazole-5-(N-3,4-dimethoxyphenylethylcarbamoyl)imine]
EC50 (pre-contracted trachea): 5200 nM

[NH-]c1n[n+](-c2ccc(C(F)(F)F)cc2)no1 [Example 4]
LD50 (LD50 test, intravenous; female mice): 81 mg/kg | LD50 (LD50 test, intravenous; male mice): 89 mg/kg

Cc1cccc(C)c1-[n+]1noc([NH-])n1 [Example 12]
EC50 (pre-contracted trachea): 4900 nM | % Inhibition of PAI-1 activity (PAI-1): 37% | PAI-1 activity (PAI-1): 2.04 U/10^8 platelets

COc1ccc(C(=O)[N-]c2n[n+](-c3cccc(Cl)c3C)no2)cc1 [Example 53]
EC50 (pre-contracted trachea): 700 nM

Cc1c(Cl)cccc1-[n+]1noc([N-]C(=O)c2cccnc2)n1 [Example 54]
Guanylate cyclase activity ([1]; 0.01 μM): 8139 pmole c-GMP/mg prot. × 15 minutes | Guanylate cyclase activity ([1]; 10 μm (so in the source)): 18693 pmole c-GMP/mg prot. × 15 minutes | EC50 (pre-contracted trachea): 600 nM

Cc1c(Cl)cccc1-[n+]1noc([NH-])n1 [Example 29, 3-(3-chloro-2-methylphenyl)-1,2,3,4-oxatriazole-5-imine]
Guanylate cyclase activity ([1]; 0.01 μM): 4407 pmole c-GMP/mg prot. × 15 minutes | Guanylate cyclase activity ([1]; 10 μm (so in the source)): 61900 pmole c-GMP/mg prot. × 15 minutes | EC50 (pre-contracted trachea): 800 nM | c-GMP in PMNs ([2]; 1 μM): 209 fmole/10^6 cells | c-GMP in PMNs ([2]; 10 μM): 859 fmole/10^6 cells | c-GMP in PMNs ([2]; 100 μM): 1044 fmole/10^6 cells | % Inhibition of PAI-1 activity (PAI-1): 39% | PAI-1 activity (PAI-1): 1.97 U/10^8 platelets

CC(=O)Oc1ccccc1C(=O)[N-]c1n[n+](-c2cccc(Cl)c2C)no1 [Example 38]
IC50 (blood platelets): 200 nM | Guanylate cyclase activity ([1]; 0.01 μM): 1024 pmole c-GMP/mg prot. × 15 minutes | Guanylate cyclase activity ([1]; 10 μm (so in the source)): 82100 pmole c-GMP/mg prot. × 15 minutes | EC50 (pre-contracted trachea): 3200 nM | Clinical observations (male rats): N.R. | Hematological parameters (male rats): N.R. | Side effects (in words) (male rats): no side effects

Cc1cc(Cl)ccc1-[n+]1noc([NH-])n1 [Example 13, 3-(4-chloro-2-methylphenyl)-1,2,3,4-oxatriazole-5-imine hydrochloride]
IC50 (blood platelets): 200 nM | Guanylate cyclase activity ([1]; 0.01 μM): 7642 pmole c-GMP/mg prot. × 15 minutes | Guanylate cyclase activity ([1]; 10 μm (so in the source)): 48126 pmole c-GMP/mg prot. × 15 minutes | EC50 (pre-contracted trachea): 1100 nM
